Values quoted from earlier work as cited in US20230310471A1, “METHODS, DEVICES, AND SYSTEMS FOR TREATING LENS PROTEIN AGGREGATION DISEASES” (priority 2022, published 2023).

System: vimentin
Settings: background statement, no experimental details printed

SMILES	vimentin degradation
O=S(=O)(F)Cc1ccccc1 [PMSF, phenylmethylsulfonyl fluoride]	decrease vimentin degradation
CC(=O)N[C@@H](CC(C)C)C(=O)N[C@@H](CC(C)C)C(=O)N[C@H](C=O)CCCNC(=N)N [leupeptin]	decrease vimentin degradation
